The results in this text go back to patent publication US20250034147A1, “MDM2 DEGRADERS AND USES THEREOF” (Kymera Therapeutics, Inc., priority 2021, published 2025).

One experiment concerns the target T1, HiBiT-tagged MDM2 (Homo sapiens, UniProt Q00987).
T1 construct: expressed in transfected cells
As to the kind of experiment: MDM2 HiBit HEK293T degradation. Format: cell-based. The conditions noted are these: HEK293T cells stably expressing C-terminally HiBiT-tagged MDM2; 4 h; read-out: MDM2 HiBit HEK293T degradation 4 h: Average external-Abs DC50. The method, then: HEK293T cells were grown overnight to 70-80% confluency in a 6-well plate in complete media (DMEM 10% FBS) in a 37° C. incubator with 5% CO2. Cells were transfected with 1 micrograms of C- or N-terminally HiBiT-tagged MDM2 constructs using Fugene 6 transfection reagent (Promega) as per manufacturer protocol. After overnight incubation at 37° C., growth media within the wells was replaced with selection media (DMEM+10% FBS+1 microgram/ml final concentration of Puromycin). Puromycin (selection antibiotic) concentrations required for complete cell kill were determined previously. Cells were monitored for the next 48h-96h to select for positively transfected cells. Surviving colonies were pooled and expanded in selection media. Expanded pools of HEK293T cells stably expressing C- and N-terminally HiBiT-tagged MDM2, were characterized using a MDM2 tool degrader and HaloPROTAC3 as positive control. HEK293T cells expressing C-terminally HiBiT-tagged MDM2 were subsequently used for assessment of degradation potencies for MDM2 degraders.
The letter codes for MDM2 degradation potency (DC50) include: A (<10 nM), B […], C (>100-1000 nM), and D (>1000 nM).

The next experiment concerns RS411 cells. As to the kind of experiment: Cell Viability CTG Assay. Format: cell-based. The note with it: Homo sapiens, RS4-11, CellTiter Glo (CTG) cell viability, read-out: Average external-IC50. The method, then: Compounds or DMSO 60 nL were stamped to the cell plate as the platemap. RS411 cells were centrifuged at 800 rpm for 5 min, suspended with culture medium, and counted with Countess (Invitrogen). The cell density was adjusted to the recommend information. 30 μL of cell solution (1000 cells/well) was added to the assay plate as the platemap and 30 μL of media was added to column 2 and column 23 as the platemap. The plate was spun down briefly. The final concentration of the compounds started at 10 μM (3 fold dilution and 11 doses) and final DMSO concentration was 0.2%. The plate was spun down briefly and incubated at 37° C., 5% CO2 for 1 day. […] 30 μL CellTiter Glo reagent was added to each well and the plate was centrifuged at 1000 rpm for 30 sec. The plate was shaken for 1 min and centrifuged at 1000 rpm for 30 sec. The plate was incubated at RT for 10 min to stabilize the luminescent signal and the luminescence was read by EnVision.
The letter codes for IC50 indicate the concentration of compound required to affect 50% of cells: A (<0.005 μM), B (0.005-0.05 μM), C (0.05-0.5 μM), and D (>0.5 μM).

Some results are limits rather than exact numbers.

T1 sequence (Q00987 whole entry): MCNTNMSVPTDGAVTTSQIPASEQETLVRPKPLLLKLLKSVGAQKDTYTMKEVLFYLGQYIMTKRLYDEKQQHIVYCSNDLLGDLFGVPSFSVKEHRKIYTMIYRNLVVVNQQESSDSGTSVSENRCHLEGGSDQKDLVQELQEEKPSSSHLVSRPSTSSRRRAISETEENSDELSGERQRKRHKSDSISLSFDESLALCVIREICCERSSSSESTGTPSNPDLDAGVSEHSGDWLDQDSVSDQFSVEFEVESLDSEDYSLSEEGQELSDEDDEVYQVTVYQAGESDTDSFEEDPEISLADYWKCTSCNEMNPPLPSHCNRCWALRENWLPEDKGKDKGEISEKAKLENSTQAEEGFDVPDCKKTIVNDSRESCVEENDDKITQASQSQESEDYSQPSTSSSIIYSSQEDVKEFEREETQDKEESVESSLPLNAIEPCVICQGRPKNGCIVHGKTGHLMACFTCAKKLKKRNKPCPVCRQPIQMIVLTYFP

For the compound `Cn1c(=O)n([C@H]2CCC(=O)NC2=O)c2ccc(C3CCN(C(=O)[C@H]4CC[C@H](NC(=O)[C@@H]5NC6(CCCCC6)[C@@]6(C(=O)Nc7cc(Cl)ccc76)[C@H]5c5cccc(Cl)c5F)CC4)CC3)cc21` (single isomer, unassigned) [I-103], the DC50 on HiBiT-tagged MDM2 was under 10 nM. The IC50 in the experiment on RS411 cells is under 5 nM.
For the compound `Cn1c(=O)n([C@@H]2CCC(=O)NC2=O)c2ccc(C3CCN(C(=O)[C@H]4CC[C@H](NC(=O)[C@@H]5NC6(CCCCC6)[C@@]6(C(=O)Nc7cc(Cl)ccc76)[C@H]5c5cccc(Cl)c5F)CC4)CC3)cc21` (single isomer, unassigned) [I-104], on HiBiT-tagged MDM2, the DC50 was under 10 nM. For the same compound, in the experiment with RS411 cells, the IC50 is under 5 nM.
The corresponding values for `CN1CCN(C[C@H]2CC[C@H](NC(=O)[C@@H]3NC4(CCCCC4)[C@@]4(C(=O)Nc5cc(Cl)ccc54)[C@H]3c3cccc(Cl)c3F)CC2)C[C@H]1CCc1ccc2c(c1)n(C)c(=O)n2C1CCC(=O)NC1=O` (stereo partly shown) [I-1] are under 10 nM and under 5 nM.
In the case of `COc1cc2c(cc1OC(C)C)[C@H](c1ccc(Cl)cc1)N(c1ccc(N(C)CC3CCN(CCCCc4ccc5c(c4)n(C)c(=O)n5C4CCC(=O)NC4=O)CC3)cc1)C(=O)C2` (stereo partly shown) [I-4], on HiBiT-tagged MDM2, the half-maximal degradation concentration (DC50) lay in the range of 10 to 100 nM. For the same compound, the IC50 with RS411 cells was under 5 nM.
The matching figures for `Cn1c(=O)n(C2CCC(=O)NC2=O)c2ccc(C3=CCN(C[C@H]4CC[C@H](NC(=O)[C@@H]5NC6(CCCCC6)[C@@]6(C(=O)Nc7cc(Cl)ccc76)[C@H]5c5cccc(Cl)c5F)CC4)CC3)cc21` (stereo partly shown) [I-5]: under 10 nM and under 5 nM.
The matching figures for `COc1cc2c(cc1OC(C)C)[C@H](c1ccc(Cl)cc1)N(c1ccc(N(C)C[C@H]3CC[C@H](N(CCS(C)(=O)=O)C(=O)CCCCc4ccc5c(c4)n(C)c(=O)n5C4CCC(=O)NC4=O)CC3)cc1)C(=O)C2` (stereo partly shown) [I-6]: 10 to 100 nM and under 5 nM.
The matching figures for `CC1(C)CCC2(CC1)NC(C(=O)N[C@H]1CC[C@H](CN3CCN(CCC#Cc4ccn5c(N6CCC(=O)NC6=O)cnc5c4)CC3)CC1)[C@H](c1ccnc(Cl)c1F)[C@]21C(=O)Nc2cc(Cl)ccc21` (stereo partly shown) [I-7]: under 10 nM and 5 to 50 nM.
Take `Cn1c(=O)n(C2CCC(=O)NC2=O)c2ccc(C#CCC3(C(=O)O)CCN(C[C@H]4CC[C@H](NC(=O)[C@@H]5NC6(CCCCC6)[C@@]6(C(=O)Nc7cc(Cl)ccc76)[C@H]5c5cccc(Cl)c5F)CC4)CC3)cc21` (stereo partly shown) [I-8]: the DC50 at HiBiT-tagged MDM2 is under 10 nM. Moreover, the half-inhibitory concentration (IC50) in the experiment on RS411 cells lay within 5 to 50 nM.
The corresponding values for `CC(C)[C@@H](CS(=O)(=O)C(C)C)N1C(=O)[C@@](C)(CC(=O)Nc2ccc(C(=O)N3CCN(CCCc4ccc5c(c4)n(C)c(=O)n5C4CCC(=O)NC4=O)CC3)cc2)C[C@H](c2cccc(Cl)c2)[C@H]1c1ccc(Cl)cc1` (stereo partly shown) [I-9] are 10 to 100 nM and 5 to 50 nM.
For `Cn1c(=O)n(C2CCC(=O)NC2=O)c2ccc(CN3CCC(OC4CCN(Cc5ccc(NC(=O)[C@@H]6NC7(CCCCC7)[C@@]7(C(=O)Nc8cc(Cl)ccc87)[C@H]6c6cccc(Cl)c6F)cc5)CC4)CC3)cc21` (stereo partly shown) [I-10], the DC50 on HiBiT-tagged MDM2 was under 10 nM. Moreover, the IC50 with RS411 cells is under 5 nM.
Regarding `Cn1c(=O)n(C2CCC(=O)NC2=O)c2ccc(CC[C@H]3CN(C[C@H]4CC[C@H](NC(=O)[C@@H]5NC6(CCCCC6)[C@@]6(C(=O)Nc7cc(Cl)ccc76)[C@H]5c5cccc(Cl)c5F)CC4)CCO3)cc21` (stereo partly shown) [I-11], on HiBiT-tagged MDM2, the DC50 is under 10 nM. Further, the IC50 with RS411 cells was under 5 nM.
The matching figures for `COc1cc2c(cc1OC(C)C)[C@H](c1ccc(Cl)cc1)N(c1ccc(N(C)C[C@H]3CC[C@H](N(CCC(=O)O)C(=O)CCCCc4ccc5c(c4)n(C)c(=O)n5C4CCC(=O)NC4=O)CC3)cc1)C(=O)C2` (stereo partly shown) [I-12]: 100 to 1000 nM and over 500 nM.
Regarding `CN1CCN(C[C@H]2CC[C@H](NC(=O)[C@@H]3NC4(CCCCC4)[C@@]4(C(=O)Nc5cc(Cl)ccc54)[C@H]3c3cccc(Cl)c3F)CC2)C[C@@H]1CCc1ccc2c(c1)n(C)c(=O)n2C1CCC(=O)NC1=O` (stereo partly shown) [I-13], the DC50 at HiBiT-tagged MDM2 is under 10 nM. In addition, the half-inhibitory concentration (IC50) in the experiment with RS411 cells was under 5 nM.
`CN1[C@@H](C(=O)N[C@H]2CC[C@H](CN3CCC(c4ccc5c(c4)n(C)c(=O)n5C4CCC(=O)NC4=O)CC3)CC2)[C@H](c2ccnc(Cl)c2F)[C@]2(C(=O)Nc3cc(Cl)ccc32)C12CCC(C)(C)CC2` (stereo partly shown) [I-14]: the DC50 at HiBiT-tagged MDM2 was under 10 nM. The half-maximal inhibitory concentration (IC50) with RS411 cells was under 5 nM.
For `Cn1c(=O)n(C2CCC(=O)NC2=O)c2ccc(N3CCN(CC4CCN(C(=O)[C@H]5CC[C@H](NC(=O)[C@@H]6NC7(CCCCC7)[C@@]7(C(=O)Nc8cc(Cl)ccc87)[C@H]6c6cccc(Cl)c6F)CC5)CC4)CC3)cc21` (stereo partly shown) [I-15], at HiBiT-tagged MDM2, the 50% degradation concentration (DC50) was under 10 nM. In the experiment on RS411 cells, the IC50 was under 5 nM.
The corresponding values for `Cn1c(=O)n(C2CCC(=O)NC2=O)c2ccc(N3CC4(CCN(C[C@H]5CC[C@H](NC(=O)[C@@H]6NC7(CCCCC7)[C@@]7(C(=O)Nc8cc(Cl)ccc87)[C@H]6c6cccc(Cl)c6F)CC5)CC4)C3)cc21` (stereo partly shown) [I-16] are under 10 nM and under 5 nM.
The corresponding values for `CN1[C@@H](C(=O)N[C@H]2CC[C@H](CN3CCC(c4ccc5c(c4)n(C)c(=O)n5C4CCC(=O)NC4=O)CC3)CC2)[C@H](c2cccc(Cl)c2F)[C@]2(C(=O)Nc3cc(Cl)ccc32)C12CCCCC2` (stereo partly shown) [I-17] are under 10 nM and under 5 nM.
The matching figures for `Cn1c(=O)n(C2CCC(=O)NC2=O)c2ccc(N3CCC(OC4CCN(C[C@H]5CC[C@H](NC(=O)[C@@H]6NC7(CCCCC7)[C@@]7(C(=O)Nc8cc(Cl)ccc87)[C@H]6c6cccc(Cl)c6F)CC5)CC4)CC3)cc21` (stereo partly shown) [I-18]: under 10 nM and under 5 nM.
Turning to `Cn1c(=O)n(C2CCC(=O)NC2=O)c2ccc(N3CC(N4CCN(C(=O)[C@H]5CC[C@H](NC(=O)[C@@H]6NC7(CCCCC7)[C@@]7(C(=O)Nc8cc(Cl)ccc87)[C@H]6c6cccc(Cl)c6F)CC5)CC4)C3)cc21` (stereo partly shown) [I-19], the DC50 at HiBiT-tagged MDM2 was under 10 nM. Moreover, the half-maximal inhibitory concentration (IC50) in the experiment on RS411 cells lay within 5 to 50 nM.
As to `Cn1c(=O)n(C2CCC(=O)NC2=O)c2ccc(CCN3CCN(CCCN4CCC(NC(=O)[C@@H]5NC6(CCC(C)(C)CC6)[C@@]6(C(=O)Nc7cc(Cl)ccc76)[C@H]5c5ccnc(Cl)c5F)CC4)CC3)cc21` (stereo partly shown) [I-20], the 50% degradation concentration (DC50) on HiBiT-tagged MDM2 was under 10 nM. Besides, the IC50 with RS411 cells was under 5 nM.
In the case of `Cn1c(=O)n(C2CCC(=O)NC2=O)c2ccc(CC[C@@H]3CN(C[C@H]4CC[C@H](NC(=O)[C@@H]5NC6(CCCCC6)[C@@]6(C(=O)Nc7cc(Cl)ccc76)[C@H]5c5cccc(Cl)c5F)CC4)CCO3)cc21` (stereo partly shown) [I-21], the DC50 at HiBiT-tagged MDM2 is under 10 nM. Moreover, the half-inhibitory concentration (IC50) in the experiment with RS411 cells was under 5 nM.
`Cn1c(=O)n(C2CCC(=O)NC2=O)c2ccc(C3(C(=O)O)CCN(C(=O)[C@H]4CC[C@H](NC(=O)[C@@H]5NC6(CCCCC6)C6(C(=O)Nc7cc(Cl)ccc76)[C@H]5c5cccc(Cl)c5F)CC4)CC3)cc21` (stereo partly drawn) [I-84, 1-((1R,4r)-4-((3′R,4′S,5′R)-6″-chloro-4′-(3-chloro-2-fluorophenyl)-2″-oxodispiro[cyclohexane-1,2′-pyrrolidine-3′,3″-indoline]-5′-carboxamido)cyclohexane-1-carbonyl)-4-(1-(2,6-dioxopiperidin-3-yl)-3-methyl-2-oxo-2,3-dihydro-1H-benzo[d]imidazol-5-yl)piperidine-4-carboxylic acid]: the IC50 in the experiment with RS411 cells is 50 to 500 nM.
Take `Cn1c(=O)n(C2CCC(=O)NC2=O)c2ccc(CCCS(=O)(=O)NC(=O)[C@H]3CC[C@H](NC(=O)[C@@H]4NC5(CCCCC5)[C@@]5(C(=O)Nc6cc(Cl)ccc65)[C@H]4c4cccc(Cl)c4F)CC3)cc21` (stereo partly shown) [I-100]: in the experiment with RS411 cells, the IC50 lay within 50 to 500 nM.
On the same count and under the same terms, with `CN1C(=O)CCC(n2c(=O)n(C)c3cc(C4CCN(C[C@H]5CC[C@H](NC(=O)[C@@H]6NC7(CCCCC7)[C@@]7(C(=O)Nc8cc(Cl)ccc87)[C@H]6c6cccc(Cl)c6F)CC5)CC4)ccc32)C1=O` (stereo partly shown) [I-101] the figure was 5 to 50 nM; with `COC(=O)C1(c2ccc3c(c2)n(C)c(=O)n3C2CCC(=O)NC2=O)CCN(C(=O)[C@H]2CC[C@H](NC(=O)[C@@H]3NC4(CCCCC4)[C@@]4(C(=O)Nc5cc(Cl)ccc54)[C@H]3c3cccc(Cl)c3F)CC2)CC1` (stereo partly drawn) [I-102, methyl 1-((1R,4r)-4-((3′R,4′S,5′R)-6″-chloro-4′-(3-chloro-2-fluorophenyl)-2″-oxodispiro[cyclohexane-1,2′-pyrrolidine-3′,3″-indoline]-5′-carboxamido)cyclohexane-1-carbonyl)-4-(1-(2,6-dioxopiperidin-3-yl)-3-methyl-2-oxo-2,3-dihydro-1H-benzo[d]imidazol-5-yl)piperidine-4-carboxylate], under 5 nM.
